Measurements: patent publication US9655869B2, “Estrogen antagonists as treatments for sclerosing disorders” (University of Pittsburgh—Of The Commonwealth System Of …, priority 2009, dated 2017)
pIC50: −log10 of the molar value.

Experiments:
[1] = system: SSc; details: references (25), (57); cited from earlier work
[2] = system: fibronectin (FN); experiment: FN mRNA (RT-PCR) and protein (western blot) expression in primary skin fibroblasts; type: cell-based, human; details: for FN protein levels in the ECM: primary fibroblasts treated 48 hrs, PPT 100 nM, genistein 100 nM, western blot; for E2-mediated increase of FN protein: skin fibroblasts pre-treated with inhibitor 1 hr prior to E2, western blot 48 hrs post-treatment, cellular lysates
Method: Skin-punch biopsies (6 mm) were obtained with informed consent from the clinically affected and unaffected skin of 6 patients with SSc and 5 healthy twins. All SSc patients had diffuse skin involvement and met the American College of Rheumatology criteria for the diagnosis of SSc (1). Biopsies were performed on the leading edge of dermal thickening and clinically normal skin. The skin samples were minced, placed in 60-mm tissue culture dishes and cultured at 37° C. in a humidified atmosphere in Dulbecco's modified Eagle's medium (DMEM) (Cellgro, Herndon, Va.) supplemented with 10% fetal bovine serum (FBS; Sigma-Aldrich, St. Louis, Mo.), 100 IU/ml penicillin, and 100 μg/ml streptomycin (Invitrogen, Carlsbad, Calif.). Skin fibroblasts (2×10^5 cells per well) were seeded in 35 mm cell culture dishes in DMEM/10% FBS. The following day, the medium was replaced with phenol-red free DMEM (Cellgro) without serum for 24 hours to deprive the cells of estrogen. […] Sigma-Aldrich) for 24 hours (for RNA extraction) or 48 hours (for protein extraction). TGF-β (10 ng/ml; R&D systems, Minneapolis, Minn.) was used as a positive control. […] Cell Signaling Technology, Beverly, Mass.) were added where indicated. To determine the role of ERα and β on FN individually, cells we cultured with propyl-pyrazole-triol (PPT), an ERα specific ligand (100 nM; Tocris), and genistein, an ERβ specific ligand (100 nM; […] Extracellular matrix (ECM) was extracted as we have previously described. (35) Briefly, cells were rinsed with PBS and incubated with 8M Urea in PBS for 20 mins. Cells were aspirated and the ECM was rinsed three times with PBS. ECM was scraped in 100 μl sample buffer (20 mM dithiothreitol, 6% SDS, 0.25 M Tris, pH 6.8, 10% glycerol, 10 mM NaF and bromophenyl blue) and analyzed by western blot. Skin fibroblasts in early passage (passages 3-4) were harvested and RNA was extracted using TRIzol (Invitrogen). mRNA was reverse transcribed using Superscript II (Invitrogen) following the manufacturer's recommendations. The cDNA generated was used as a template for amplification by PCR with primers specific for ERα [NT] ID NO:1) and […] NO:2), ERβ […] NO:3) and [NT] ID NO:4), Fibronectin, [NT] ID NO:5) and 5-[…] ID NO:6) and β-actin, […] NO:7) and [NT] ID NO:8). PCR amplification was performed in a 50 μl reaction containing 10 units of the reverse transcription reaction, Taq DNA polymerase (Invitrogen), 10×PCR buffer (750 mM Tris-HCl, pH8.8, 200 mM (NH4)2SO4 and 0.1% Tween 20), 1.5 mM MgSO4, 1 mM of each deoxynucleotide triphosphate in a Peltier Thermal Cycler-200 (MJ Research, Waltham, Mass.). Conditions were an initial denaturation at 95° C. for 4 min, followed by 35 cycles of 94° C. for 45 sec, 55° C. for 30 sec, and 68° C. for 2 min. Final extension was at 68° C. for 5 min. 20 μl of each reaction was electrophoresed on a 1% agarose gel in 1×TAE (Tris/acetate/EDTA) buffer and products were visualized following staining with ethidium bromide. Molecular weight of each PCR product: ERα 1062 bp, ERβ 934 bp, FN 513 bp and β-actin 494 bp. Cells were grown to confluency in 35 mm culture dishes. Cells were rinsed with 1×PBS and scraped in sample buffer (20 mM dithiothreitol, 6% SDS, 0.25 M Tris, pH 6.8, 10% glycerol, 10 mM NaF and bromophenyl blue). Samples were separated by electrophoresis on 8% SDS-polacrylamide gels (National Diagnostic, Atlanta, Ga.) and transferred to nitrocellulose membranes. […] Immunoreactive proteins were detected by chemiluminescence (PerkinElmer Life Sciences, Boston, Mass.), followed by autoradiography.

[3] = system: ERα; experiment: ERα protein in cellular lysates of skin fibroblasts (western blot); type: cell-based, human; details: for E2-induced increase of ERα: skin fibroblasts pre-treated with inhibitor 1 hr prior to E2, 48 hrs
Method: Skin fibroblasts (2×10^5 cells per well) were seeded in 35 mm cell culture dishes in DMEM/10% FBS. The following day, the medium was replaced with phenol-red free DMEM (Cellgro) without serum for 24 hours to deprive the cells of estrogen. Fresh phenol-red free DMEM plus 10% charcoal stripped fetal bovine serum (Hyclone, Logan, Utah) was added with one of the following: ethanol as vehicle control (0.1%) or E2 (10 nM; Sigma-Aldrich) for 24 hours (for RNA extraction) or 48 hours (for protein extraction).
Cells were grown to confluency in 35 mm culture dishes. Cells were rinsed with 1×PBS and scraped in sample buffer (20 mM dithiothreitol, 6% SDS, 0.25 M Tris, pH 6.8, 10% glycerol, 10 mM NaF and bromophenyl blue). Samples were separated by electrophoresis on 8% SDS-polacrylamide gels (National Diagnostic, Atlanta, Ga.) and transferred to nitrocellulose membranes. Membranes were blocked with 5% non-fat milk in 1×TBS-Tween20 (0.2 M Tris, 0.14 M NaCl, 0.1% Tween 20), followed by incubation with mouse monoclonal anti-human EDA-fibronectin antibody, rabbit polyclonal anti-human fibronectin antibody, rabbit polyclonal anti-ERα antibody, rabbit polyclonal anti-ERβ antibody (Santa Cruz Biotechnology, Santa Cruz, Calif.), mouse monoclonal anti-human vitronectin, mouse monoclonal anti-β-actin (Sigma-Aldrich), or mouse monoclonal anti-GAPDH (Ambion, Austin, Tex.) in 1×TBS-Tween20 followed by horseradish peroxide-conjugated donkey anti-rabbit IgG (Amersham, Piscataway, N.J.) or donkey anti-mouse IgG (Amersham). Immunoreactive proteins were detected by chemiluminescence (PerkinElmer Life Sciences, Boston, Mass.), followed by autoradiography.
We also examined the effect of the chemical inhibitors on ERα and ERβ.

[4] = system: human skin; experiment: ex vivo human skin organ culture: dermal and collagen bundle thickness; details: explanted human skin, 7 days; for collagen bundle thickness, ratio compared with vehicle / dermal thickness, ratio compared with vehicle: p<0.05, 3 experiments
Method: Dermal and collagen bundle thickness were measured in skin sections stained with hematoxylin and eosin.
Dermal thickness was defined as the distance from the granular layer to the junction between the dermis and subcutaneous fat. Images were taken on a Nikon Eclipse 800 microscope (Nikon Instruments, Inc., Huntley, Ill.) using identical camera settings and Image was used to measure thickness. Thickness was measured in 5 random fields in each sample.
(§1) To further examine the effect of estradiol in skin tissues, dermal and collagen bundle thickness in dermis were assessed using an ex vivo organ culture system. Ex-planted skin tissues on 35-mm well plates were treated with estradiol, estrogen receptor alpha or beta agonists (PPT, genistein, respectively) or vehicles (ethanol for estraditol, PPT, DMSO for genistein, respectively) for 7 days, and skin sections were stained with hematoxylin and eosin. […] We also assessed the extent of deposition of fibronectin using immunohistochemistry. […] Thus, estradiol is an important factor for the induction of skin fibrosis, and the effect of estradiol is mediated by estrogen receptor alpha.

[5] = system: fibronectin; experiment: ex vivo human skin organ culture: fibronectin immunohistochemistry; details: explanted human skin, 7 days; anti-fibronectin antibody, AEC
Method: 6 μm sections of paraffin-embedded skin tissues were de-paraffinized, endogenous peroxidase was quenched using 10% H2O2, and endogenous biotin was blocked using the biotin blocking kit (Dakocytomation, Carpinteria, Calif.). Sections were blocked with 5% serum and incubated with anti-fibronectin antibody followed by secondary antibody. Bound secondary antibody was detected using the AEC Red kit. A light hematoxylin counterstain was used to identify nuclei. Images were taken on a Nikon Eclipse 800 microscope.
as §1

[6] = system: MCF7; details: reference (56); read-out: 1050 in the MCF7 proliferation assay; cited from earlier work
[7] = serum half life; cited from earlier work

CC(=O)Oc1ccc(C(=C2CCCCC2)c2ccc(OC(C)=O)cc2)cc1 [Cyclofenil]
SSc symptoms / treatment outcome in SSc patients [1]: disappointing results

C[C@]12CC[C@@H]3c4ccc(O)cc4CC[C@H]3[C@@H]1CC[C@@H]2O [E2, 17-β-Estradiol]
FN mRNA and protein levels ([2]; healthy twin and SSc fibroblasts, E2 10 nM, 24 hrs (mRNA), 48 hrs (protein)): increased
FN protein levels in the ECM ([2]; E2 10 nM): increased
ERα level ([3]; skin fibroblasts stimulated with E2 48 hrs): increased
collagen bundle thickness, ratio compared with vehicle [4]: 2.62 ± 0.18 arbitrary unit
dermal thickness, ratio compared with vehicle [4]: 1.61±0.12 arbitrary unit
fibronectin expression ex vivo (immunohistochemistry) [5]: induce fibronectin expression

C[C@]12CC[C@@H]3c4ccc(O)cc4C[C@@H](CCCCCCCCC[S+]([O-])CCCC(F)(F)C(F)(F)F)[C@H]3[C@@H]1CC[C@@H]2O (stereo partly drawn) [ICI 182,780, fulvestrant]
TGF-β-induced FN levels ([2]; TGF-β 10 ng/ml, ICI 182,780 100 nM): did not affect
effect of E2 on FN mRNA and protein expression in presence of antagonist ([2]; normal skin fibroblasts, E2 10 nM 48 hrs, ICI 182,780 100 nM, ECM and supernatants): blocked the effect of E2
effect of estradiol on dermal and collagen bundle thickness in presence of antagonist ([4]; E2+ICI): blocked the effect of estradiol
pIC50 [6]: ~7.85
half life [7]: approximately forty

N#CC(=C(/N)Sc1ccccc1N)/C(C#N)=C(\N)Sc1ccccc1N [MEK inhibitor, U0126]
E2-mediated increase of FN protein [2]: more modest effect
E2-induced increase of ERα [3]: blocked

CCCc1c(-c2ccc(O)cc2)nn(-c2ccc(O)cc2)c1-c1ccc(O)cc1 [PPT, propyl-pyrazole-triol]
collagen bundle thickness, ratio compared with vehicle [4]: 1.84 ± 0.15 arbitrary unit
dermal thickness, ratio compared with vehicle [4]: 1.54±0.05 arbitrary unit

CC/C(=C(\c1ccccc1)c1ccc(OCCN(C)C)cc1)c1ccccc1 [Tamoxifen, tamoxifen]
SSc symptoms / treatment outcome in SSc patients [1]: did not improve SSc symptoms

O=c1c(-c2ccc(O)cc2)coc2cc(O)cc(O)c12 [genistein]
FN protein levels in the ECM ([2]; E2 10 nM): modestly increased
thickening of dermis and collagen bundles ([4]; vs DMSO vehicle): did not induce thickening

Oc1ccc(-c2nc(-c3ccncc3)c(-c3ccc(F)cc3)[nH]2)cc1 [p38 MAPK inhibitor, SB202190]
E2-mediated increase of FN protein [2]: attenuated
E2-induced increase of ERα [3]: blocked
